The subject of series [1] is Ulva pertusa. More on the design: method as in doi:10.3989/scimar.04638.13A. The settings on record: cited from earlier work.
Series [2] has as its system Roseobacter litoralis CECT 5395. Description: Biofilm-forming marine bacteria growth inhibition. The conditions noted are these: for EC50: Roseobacter litoralis, CECT5395; for R. litoralis biofilm growth inhibition: screening at 15 μM, 24 h, vs negative control (Dunnett, p < 0.01). Format: cell-based. Here is the method: Five strains of marine biofilm-forming bacteria from the Spanish Type Culture Collection (CECT): Cobetia marina CECT 4278, Vibrio harveyi CECT 525, Halomonas aquamarina CECT 5000, Pseudoalteromonas atlantica CECT 570, and Roseobacter litoralis CECT 5395 were selected for antibacterial screening. The experimental procedure was performed according to the previously reported. Briefly, bacteria were inoculated and incubated for 24 h at 26 °C in marine broth (Difco) at an initial density of 0.1 (OD600) in 96-well flat-bottom microtiter plates and exposed to the test compounds at 15 μM. Bacterial growth inhibition in the presence of the compounds was determined in quadruplicate at 600 nm using a microplate reader (BioTek Synergy HT, Winooski, VT, USA). Negative and positive controls used were a solution of marine broth with 0.1% DMSO, and a solution of marine broth with penicillin–streptomycin–neomycin, respectively. Bacterial growth inhibition calculations were made based in the formula ((Mc–Mt)/Mc) × 100, where Mc is the mean of the four replicates from negative control, and Mt is the mean of four replicates from each of the tested compounds.
(§1) Data from anti-settlement, antibacterial, and anti-microalgal bioassay were analyzed by one-way analysis of variance (ANOVA), followed by a multi-comparisons Dunnett’s test against negative control. For all of the bioassays, the half-maximum response concentration (EC50) values for each compound, when applicable, were calculated using probit regression analysis. Significance was considered at p < 0.01, and 95% lower and upper confidence limits (95% LCL; UCL). The software IBM SPSS Statistics 26 (Armonk, New York, NY, USA) was used for statistical analysis.

In series [3] the test system is Mytilus galloprovincialis plantigrade larvae. Description: Mussel larvae anti-settlement bioassay. Format: in vivo. The settings on record: for EC50: Mytilus galloprovincialis, dose-response 3.125-200 μM; for percentage of settlement: screening at 50 μM, 15 h. How it is done:
(§2) Mussel (Mytilus galloprovincialis) plantigrades were collected in juvenile aggregates during low neap tides at Memória beach, Matosinhos, Portugal (41°13′59″ N; 8°43′28″ W). In the laboratory, mussel plantigrade larvae (0.5–2 mm) were isolated in a binocular magnifier (Olympus SZX2-ILLT, Tokyo, Japan) to a petri dish with filtered seawater, and those with functional foot and competent exploring behavior were selected to the bioassays. Compounds were screened at 50 µM in 24-well microplates with 4-well replicates per condition and 5 larvae per well, for 15 h, in the darkness at 18 ± 1 °C, according to the previously reported. All compounds that caused more than 60% of settlement inhibition (≤40% of settlement) in the screening bioassay were considered active and selected for the determination of the semi-maximum response concentration that inhibited 50% of the larval settlement (EC50), at compounds concentrations of 3.125, 6.25, 12.5, 25, 50, 100, and 200 μM.
as §1

Series [4] can be described thus: Mussel larvae anti-settlement bioassay. Format: in vivo. The settings on record: Mytilus galloprovincialis (mussel) plantigrade larvae, in vivo; mussel plantigrade larvae; highest concentration tested 200 μM; read-out: LC50 (µM), median lethal dose. Here is the method: as §2, §1
Series [5] deals with Navicula sp. Description: Biofilm-forming marine diatom growth inhibition. In kind it is cell-based. The settings on record: for EC50: dose-response. Here is the method: The anti-microalgal activity of the most promising compounds was also evaluated against a benthic marine diatom, Navicula sp., purchased from the Spanish Collection of Algae (BEA), according to the previously reported. Briefly, diatom cells were inoculated in f/2 medium (Sigma) at an initial concentration of 2–4 × 10^6 cells·mL^−1 and grown in 96-well flat-bottom microtiter plates for 14 days in continuous light at 20 °C. […] Growth inhibition was calculated based in the formula ((Mc–Mt)/Mc) × 100, where Mc is the mean of the cell counts of the four replicates from negative control, and Mt is the mean of the cell counts of the four replicates from each of the tested compounds. Positive control with cycloheximide (3.55 μM) and negative control with f/2 medium 0.1% DMSO were included.
as §1

The subject of series [6] is Artemia salina nauplii. Nature of the series: Artemia salina nauplii lethality ecotoxicity bioassay. In kind it is in vivo. The conditions noted are these: 25 and 50 μM, 48 h exposure. How it is done: The brine shrimp (Artemia salina) nauplii lethality test was used to determine the ecotoxicity of 6a, 7a, and 9a to non-target organisms. Briefly, Artemia salina eggs were allowed to hatch in seawater for 48 h at 25 °C. Bioassays were performed in 96-well microplates with 15–20 nauplii per well and 200 μL of the compounds test solution. Test solutions were prepared in filtered seawater at concentrations of 25 and 50 μM. All tests included K2Cr2O7 as positive control and DMSO as a negative control. Bioassays run in the dark at 25 °C, and the percentage of mortality was determined after 48 h of exposure.

For series [7], the system named is Artemia salina nauplii. More on the design: method as in PMID 31669574. The settings on record: 25 and 50 μM; cited from earlier work.
Setting [8] is: dose-response, read-out: EC50 (µM), R. litoralis growth.
The mark [9] stands for this setting: dose-response, read-out: EC50 (µg·mL^−1), R. litoralis growth.
The mark [10] stands for this setting: 95% CI in brackets, read-out: EC50 (µM), concentration that inhibited 50% of larval settlement.

The structures appear in SMILES notation. “Also recorded” adds a separate entry of the source. Where two headings read alike, the source gives them in different places.

Regarding `CC(=O)c1ccc(O)cc1O` [2,4-dihydroxyacetophenone], the “inhibition of spore attachment” value in series [1] is reported as “significantly inhibit”.

Consider `COc1cc(C(C)=O)cc(OC)c1OCc1cn(Cc2ccc(C#N)cc2)nn1` [Compound 3a, 4-((4-((4-Acetyl-2,6-dimethoxyphenoxy)methyl)-1H-1,2,3-triazol-1-yl)methyl)benzonitrile], for which the melting point (commonly the temperature, or range, at which the solid turns liquid) was 149.5 to 149.8 °C.

In the case of `CC(=O)c1ccc(OCc2cn(Cc3ccc(C#N)cc3)nn2)cc1O` [Compound 3b, 4-((4-((4-Acetyl-3-hydroxyphenoxy)methyl)-1H-1,2,3-triazol-1-yl)methyl)benzonitrile], the melting point lay within 153.8 to 155.6 °C. In addition, the EC50 in series [2] (setting [8]) is 49.8 µM. In addition, the EC50 in series [2] (setting [9]) stood at 17.4 µg/mL. In series [2], the “R. litoralis biofilm growth inhibition” value was “significantly inhibit”.

`COc1cc(C(C)=O)cc(OC)c1OCc1cn(-c2ccc(F)cc2)nn1` [Compound 4a, 1-(4-((1-(4-Fluorophenyl)-1H-1,2,3-triazol-4-yl)methoxy)-3,5-dimethoxyphenyl)ethan-1-one] showed a melting point of 160 to 160.5 °C.

As for `CC(=O)c1ccc(OCc2cn(-c3ccc(F)cc3)nn2)cc1O` [Compound 4b, 1-(4-((1-(4-Fluorophenyl)-1H-1,2,3-triazol-4-yl)methoxy)-2-hydroxyphenyl)ethan-1-one], the melting point is 145.9 to 148 °C. In addition, the EC50 in series [2] (setting [8]) came out at 105 µM. Also, the EC50 in series [2] (setting [9]) was 34.4 µg/mL. The “R. litoralis biofilm growth inhibition” value in series [2] is “significantly inhibit”.

On to `COc1cc(C(C)=O)cc(OC)c1OCc1cn(-c2ccc(Br)cc2)nn1` [Compound 5a, 1-(4-((1-(4-Bromophenyl)-1H-1,2,3-triazol-4-yl)methoxy)-3,5-dimethoxyphenyl)ethan-1-one], for which the melting point was in the range of 159.1 to 160.4 °C.

The molecule `CC(=O)c1ccc(OCc2cn(-c3ccc(Br)cc3)nn2)cc1O` [Compound 5b, 1-(4-((1-(4-Bromophenyl)-1H-1,2,3-triazol-4-yl)methoxy)-2-hydroxyphenyl)ethan-1-one] registered a melting point of 183.3 to 184.8 °C.

As to `COc1cc(C(C)=O)cc(OC)c1OCc1cn(-c2ccc(Cl)cc2)nn1` [Compound 6a, 1-(4-((1-(4-Chlorophenyl)-1H-1,2,3-triazol-4-yl)methoxy)-3,5-dimethoxyphenyl)ethan-1-one], in series [3] (setting [10]), the EC50 came to 28.9 µM. Further, the percentage of settlement in series [3] is listed as no more than 40%. The LC50 (usually the concentration lethal to half of the exposed cells or organisms) at 15 h in series [4] is greater than 200 µM.

Molecule `CC(=O)c1ccc(OCc2cn(-c3ccc(Cl)cc3)nn2)cc1O` [Compound 6b, 1-(4-((1-(4-Chlorophenyl)-1H-1,2,3-triazol-4-yl)methoxy)-2-hydroxyphenyl)ethan-1-one] displayed a melting point of 157 to 159.1 °C.

In the case of `COc1cc(C(C)=O)cc(OC)c1OCc1cn(CCCO)nn1` [Compound 7a, 1-(4-((1-(3-Hydroxypropyl)-1H-1,2,3-triazol-4-yl)methoxy)-3,5-dimethoxyphenyl)ethan-1-one], the “Navicula sp. growth inhibition screening” value in series [5] (15 µM (Figure 5 legend), 14 days) was “showed inhibitory activity”. Besides, the EC50 in series [5] (read-out: EC50 (µM), Navicula sp. growth) was 26.7 µM; in series [5] (read-out: EC50 (µg·mL^−1), Navicula sp. growth) it was 8.96 µg/mL; in series [3] (setting [10]) it was 40.1 µM; in series [3] (read-out: EC50 (µg·mL^−1), larval settlement), less than 25 µg/mL. In addition, in series [3], the percentage of settlement was no more than 40%. For the same molecule, the LC50 at 15 h in series [4] was greater than 200 µM. Moreover, in series [6], the “mortality rate of Artemia salina nauplii” value is given as “not significantly different from negative control; also recorded: non-toxic”.

Consider `CC(=O)c1ccc(OCc2cn(CCCO)nn2)cc1O` [Compound 7b, 1-(2-Hydroxy-4-((1-(3-hydroxypropyl)-1H-1,2,3-triazol-4-yl)methoxy)phenyl)ethan-1-one], for which the melting point is 69.2 to 70.5 °C. The “EC50 (µM), R. litoralis growth” value in series [2] (dose-response) is on record as “not possible to estimate”. Besides, the “R. litoralis biofilm growth inhibition” value in series [2] is recorded as “significantly inhibit”.

In the case of `COc1ccc(-n2cc(COc3c(OC)cc(C(C)=O)cc3OC)nn2)cc1` [Compound 8a, 1-(3,5-Dimethoxy-4-((1-(4-methoxyphenyl)-1H-1,2,3-triazol-4-yl)methoxy)phenyl)ethan-1-one], the melting point is 99.5 to 102.3 °C.

`COc1ccc(-n2cc(COc3ccc(C(C)=O)c(O)c3)nn2)cc1` [Compound 8b, 1-(2-Hydroxy-4-((1-(4-methoxyphenyl)-1H-1,2,3-triazol-4-yl)methoxy)phenyl)ethan-1-one] yielded a melting point of 115.1 to 117.5 °C.

With `COc1cc(C(C)=O)cc(OC)c1OCc1cn([C@H]2O[C@@H](CO)[C@H](O)[C@@H](O)[C@@H]2NC(C)=O)nn1` [Compound 9a, N-((2S,3S,4S,5R,6S)-2-(4-((4-Acetyl-2,6-dimethoxyphenoxy)methyl)-1H-1,2,3-triazol-1-yl)-4,5-dihydroxy-6-(hydroxymethyl)tetrahydro-2H-pyran-3-yl)acetamide], the EC50 in series [3] (setting [10]) was 20.7 µM. In series [3], this molecule returned a percentage of settlement of no more than 40%. The LC50 at 15 h in series [4] is greater than 200 µM. Also, in series [6], the “mortality rate of Artemia salina nauplii” value is recorded as “not significantly different from negative control; also recorded: non-toxic”.

In the case of `N#Cc1c(-c2ccc(Cl)cc2)[nH]c(C(F)(F)F)c1Br` [ECONEA®], the “lethality to Artemia salina” value in series [7] was 100%.

Source of the values: publication PMC8704891, “Natural Benzo/Acetophenones as Leads for New Synthetic Acetophenone Hybrids Containing a 1,2,3-Triazole Ring as Potential Antifouling Agents” (Marine Drugs, 2021).
